According to ChEMBL document CHEMBL1759880, “A facile, one-pot synthesis, characterization and antimicrobial activity of o-hydroxy anilide derivatives and 1-substituted-1,3-dicyclohexylurea analogs of long chain carboxylic acids” (2011):
Converted amounts (≈) assume the structure as drawn.

What was measured:
[1] = test system: Klebsiella pneumoniae; test: Antibacterial activity against Klebsiella pneumoniae clinical isolate after 24 hrs by broth dilution technique; assay type: functional
[2] = test system: Candida albicans; test: Antifungal activity against Candida albicans after 3 to 4 days by disc diffusion method; assay type: functional
[3] = test system: Candida albicans; test: Antifungal activity against Candida albicans after 48 hrs by broth dilution technique; assay type: functional
[4] = test system: Staphylococcus aureus; test: Antibacterial activity against Staphylococcus aureus ATCC 25923 after 24 hrs by disc diffusion method; assay type: functional
[5] = test system: Streptococcus pyogenes; test: Antibacterial activity against Streptococcus pyogenes clinical isolate after 24 hrs by disc diffusion method; assay type: functional
[6] = test system: Aspergillus fumigatus; test: Antifungal activity against Aspergillus fumigatus after 3 to 4 days by disc diffusion method; assay type: functional
[7] = test system: Aspergillus fumigatus; test: Antifungal activity against Aspergillus fumigatus after 48 hrs by broth dilution technique; assay type: functional
[8] = test system: Escherichia coli; test: Antibacterial activity against Escherichia coli ATCC 25922 after 24 hrs by disc diffusion method; assay type: functional
[9] = test system: Talaromyces marneffei; test: Antifungal activity against Penicillium marneffei after 3 to 4 days by disc diffusion method; assay type: functional
[10] = test system: Staphylococcus aureus; test: Antibacterial activity against Staphylococcus aureus ATCC 25923 after 24 hrs by broth dilution technique; assay type: functional; conditions: ATCC-25923, 24 h
[11] = test system: Escherichia coli; test: Antibacterial activity against Escherichia coli ATCC 25922 after 24 hrs by broth dilution technique; assay type: functional; conditions: ATCC-25922, 24 h
[12] = test system: Streptococcus pyogenes; test: Antibacterial activity against Streptococcus pyogenes clinical isolate after 24 hrs by broth dilution technique; assay type: functional
[13] = test system: Klebsiella pneumoniae; test: Antibacterial activity against Klebsiella pneumoniae clinical isolate after 24 hrs by disc diffusion method; assay type: functional
[14] = test system: Trichophyton mentagrophytes; test: Antifungal activity against Trichophyton mentagrophytes after 48 hrs by broth dilution technique; assay type: functional
[15] = test system: Talaromyces marneffei; test: Antifungal activity against Penicillium marneffei after 48 hrs by broth dilution technique; assay type: functional
[16] = test system: Pseudomonas aeruginosa; test: Antibacterial activity against Pseudomonas aeruginosa ATCC 27853 after 24 hrs by broth dilution technique; conditions: ATCC-27853, 24 h
[17] = test system: Trichophyton mentagrophytes; test: Antifungal activity against Trichophyton mentagrophytes after 3 to 4 days by disc diffusion method; assay type: functional
[18] = test system: Pseudomonas aeruginosa; test: Antibacterial activity against Pseudomonas aeruginosa ATCC 27853 after 24 hrs by disc diffusion method

| Compound | MBC [1] [µg/mL] | MIC [1] [µg/mL] | diameter of the inhibition zone (DIZ) [2] [mm] | MFC [3] [µg/mL] | MIC [3] [µg/mL] | diameter of the inhibition zone (DIZ) [4] [mm] | diameter of the inhibition zone (DIZ) [5] [mm] | diameter of the inhibition zone (DIZ) [6] [mm] | MFC [7] [µg/mL] | MIC [7] [µg/mL] | diameter of the inhibition zone (DIZ) [8] [mm] | diameter of the inhibition zone (DIZ) [9] [mm] | MBC [10] [µg/mL] | MIC [10] [µg/mL] | MBC [11] [µg/mL] | MIC [11] [µg/mL] | MBC [12] [µg/mL] | MIC [12] [µg/mL] | diameter of the inhibition zone (DIZ) [13] [mm] | MFC [14] [µg/mL] | further results |
| --- | --- | --- | --- | --- | --- | --- | --- | --- | --- | --- | --- | --- | --- | --- | --- | --- | --- | --- | --- | --- | --- |
| CCCCCCCCCCCCCCCCCC(=O)N(C(=O)NC1CCCCC1)C1CCCCC1 | 100 (≈ 204 µM) | 100 (≈ 204 µM) | 15.1 | 50 (≈ 102 µM) | 25 (≈ 50.9 µM) | 11.3 | 11.5 | 13.6 | 100 (≈ 204 µM) | 50 (≈ 102 µM) | 13.3 | 10.5 | 100 (≈ 204 µM) | 50 (≈ 102 µM) | 100 (≈ 204 µM) | 50 (≈ 102 µM) | 100 (≈ 204 µM) | 50 (≈ 102 µM) | 12.7 | 100 (≈ 204 µM) | MIC [14]: 50 µg/mL (≈ 102 µM); MFC [15]: 100 µg/mL (≈ 204 µM); MIC [15]: 50 µg/mL (≈ 102 µM); MBC [16]: 100 µg/mL (≈ 204 µM); MIC [16]: 25 µg/mL (≈ 50.9 µM); diameter of the inhibition zone (DIZ) [17]: 12.2 mm; diameter of the inhibition zone (DIZ) [18]: 12.2 mm |
| CCCCCCCCCCCCCCCC(=O)Nc1ccccc1O | 100 (≈ 288 µM) | 50 (≈ 144 µM) | 13.7 | 100 (≈ 288 µM) | 50 (≈ 144 µM) | 9.8 | 10.6 | 11.6 | 100 (≈ 288 µM) | 50 (≈ 144 µM) | 11.8 | 9.3 | 100 (≈ 288 µM) | 50 (≈ 144 µM) | 100 (≈ 288 µM) | 100 (≈ 288 µM) | 100 (≈ 288 µM) | 50 (≈ 144 µM) | 10.5 | 100 (≈ 288 µM) | MIC [14]: 25 µg/mL (≈ 71.9 µM); MFC [15]: 100 µg/mL (≈ 288 µM); MIC [15]: 50 µg/mL (≈ 144 µM); MBC [16]: 100 µg/mL (≈ 288 µM); MIC [16]: 100 µg/mL (≈ 288 µM); diameter of the inhibition zone (DIZ) [17]: 9.8 mm; diameter of the inhibition zone (DIZ) [18]: 11.5 mm |
| CCCCCCCCCCCCCCCC(=O)N(C(=O)NC1CCCCC1)C1CCCCC1 | 100 (≈ 216 µM) | 50 (≈ 108 µM) | 14.2 | 50 (≈ 108 µM) | 25 (≈ 54 µM) | 10.1 | 11.2 | 12.5 | 100 (≈ 216 µM) | 50 (≈ 108 µM) | 12.3 | 9.9 | 100 (≈ 216 µM) | 50 (≈ 108 µM) | 100 (≈ 216 µM) | 50 (≈ 108 µM) | 100 (≈ 216 µM) | 50 (≈ 108 µM) | 10.7 | 25 (≈ 54 µM) | MIC [14]: 12.5 µg/mL (≈ 27 µM); MFC [15]: 100 µg/mL (≈ 216 µM); MIC [15]: 50 µg/mL (≈ 108 µM); MBC [16]: 100 µg/mL (≈ 216 µM); MIC [16]: 25 µg/mL (≈ 54 µM); diameter of the inhibition zone (DIZ) [17]: 10.7 mm; diameter of the inhibition zone (DIZ) [18]: 14.9 mm |
| CCCCC/C=C\CC[C@H](O)CCCCCCCC(=O)N(C(=O)NC1CCCCC1)C1CCCCC1 | 100 (≈ 198 µM) | 25 (≈ 49.5 µM) | 24.2 | 12.5 (≈ 24.8 µM) | 12.5 (≈ 24.8 µM) | 19.5 | 20.8 | 21.2 | 25 (≈ 49.5 µM) | 12.5 (≈ 24.8 µM) | 23.4 | 13.8 | 50 (≈ 99 µM) | 25 (≈ 49.5 µM) | 100 (≈ 198 µM) | 50 (≈ 99 µM) | 25 (≈ 49.5 µM) | 25 (≈ 49.5 µM) | 20.6 | 25 (≈ 49.5 µM) | MIC [14]: 12.5 µg/mL (≈ 24.8 µM); MFC [15]: 25 µg/mL (≈ 49.5 µM); MIC [15]: 12.5 µg/mL (≈ 24.8 µM); MBC [16]: 100 µg/mL (≈ 198 µM); MIC [16]: 25 µg/mL (≈ 49.5 µM); diameter of the inhibition zone (DIZ) [17]: 18.3 mm; diameter of the inhibition zone (DIZ) [18]: 27.1 mm |
